According to publication PMC4750701, “Role of Mitochondrial RNA Polymerase in the Toxicity of Nucleotide Inhibitors of Hepatitis C Virus” (Antimicrobial Agents and Chemotherapy, 2016):
Blank lines part the entries; values can stand above or below the compound they belong to.

Assays:
[1] = molecular target: T1, RNA PolII (Homo sapiens, UniProt P24928+P30876); test: Inhibition of RNA PolII (HeLaScribe nuclear extract transcription); type: biochemical; details: nucleotide analogs (Table 6); read-out: Mean IC50 ± SD for RNA PolII
T1 construct: purchased as part of the HeLaScribe nuclear extract in vitro transcription system kit; purchased Promega (Madison, WI); host or cells: HeLa nuclear extract (endogenous enzyme)
Source text: (§1) Activated fish sperm DNA was purchased from USB/Affymetrix (Santa Clara, CA) and used as a template for the DNA polymerases alpha, beta, and gamma. The DNA template used in the RNA Pol II assay was a 1,188-bp restriction fragment containing the cytomegalovirus (CMV) immediate early promoter (Promega, Madison, WI). The RNA and DNA oligonucleotides used in the mitochondrial RNA polymerase assay (see Table S1 in the supplemental material) were synthesized and PAGE purified by Thermo Scientific/Dharmacon (Lafayette, CO). RNA primer R12 was 5′-^32P-phosphorylated with [γ-^32P]ATP (3,000 Ci/mmol) and T4 kinase (New England BioLabs, Ipswich, MA).
(§2) Human DNA polymerase alpha, isolated from HeLa cell extracts, was from CHIMERx (Madison, WI). Recombinant human DNA polymerase beta, expressed in E. coli, was a gift from Zucai Suo at The Ohio State University. Recombinant human DNA polymerase gamma (including both the large subunit and the small subunit) was cloned, expressed, and purified from insect cells by Gilead Sciences (Foster City, CA) ([13]). RNA PolII was purchased as part of the HeLaScribe nuclear extract in vitro transcription system kit from Promega (Madison, WI). The recombinant human PolRMT and the transcription factors mitochondrial transcription factor A (mtTFA) and B2 (mtTFB2) were purchased from Enzymax (Lexington, KY). FLAG epitope-tagged RNA PolI and PolIII complexes were isolated from rat NSN1 cells and HeLa cells, respectively ([17], [18]). The inhibition of DNA polymerases alpha, beta, and gamma, PolRMT, and PolII and the rate of single-nucleotide incorporation by PolRMT have been described previously in detail ([12], [13], [19]). Inhibition of RNA PolI and PolIII was studied using published methods ([20], [21]). All concentrations were final unless noted otherwise. For the RNA PolI inhibition assay, a reaction mixture containing 50 mM HEPES (pH 7.9), 20% glycerol, 100 mM KCl, 1 mM dithiothreitol (DTT), 50 μg/ml calf thymus DNA, 4 mM MgCl2, 5 or 80 μM UTP (0.25 μl of [5,6-^3H]UTP, >25 Ci/mmol; PerkinElmer), 1 mM noncompeting NTP, competing NTP (5 μM for GTP, CTP, and UTP and 25 μM for ATP), and various concentrations (0 to 500 μM) of NTP analogs was preincubated at 30°C for 5 min. […] After incubation at 30°C for 20 min to 1 h, the reactions were terminated by pipetting the mixtures onto DEAE-cellulose discs (DE81; Whatman), and the products analyzed as described previously ([20], [21]).

[2] = molecular target: T2, RNA PolI (Rattus norvegicus, UniProt O54889); test: RNA PolI inhibition assay; type: biochemical; details: NTP analogs 0 to 500 μM; read-out: Mean IC50 ± SD for RNA PolI
T2 construct: complexes were isolated from rat NSN1 cells and HeLa cells, respectively; made in house; host or cells: rat NSN1 cells expressing a FLAG-tagged Pol I subunit
Source text: as §2

[3] = molecular target: T3, RNA PolIII (Homo sapiens, UniProt O14802+Q9NW08); test: RNA PolIII inhibition assay; type: biochemical; details: competing NTP 100 μM CTP and GTP, 500 μM ATP; read-out: Mean IC50 ± SD for RNA PolIII
T3 construct: complexes were isolated from rat NSN1 cells and HeLa cells, respectively; made in house; host or cells: HeLa cells expressing a FLAG-tagged Pol III subunit
Source text: as §2
The RNA PolIII inhibition assay was conducted in a similar manner, except that the concentrations of the competing NTP were modified to 100 μM for CTP and GTP and 500 μM for ATP to compensate for the low assay signal at lower NTP concentrations.

[4] = molecular target: T4, Recombinant human DNA polymerase beta (Homo sapiens, UniProt P06746); test: Inhibition of human DNA polymerase beta; type: biochemical; details: triphosphate form of the compound tested; read-out: Mean IC50 ± SD for DNA Pol β
T4 construct: host or cells: E. coli
Source text: as §1, §2

[5] = molecular target: T5, Recombinant human DNA polymerase gamma (Homo sapiens, UniProt P54098); test: Inhibition of human DNA polymerase gamma; type: biochemical; details: triphosphate form of the compound tested; read-out: Mean IC50 ± SD for DNA Pol γ
T5 construct: made in house; host or cells: insect cells
T5 sequence (P54098 1-1239): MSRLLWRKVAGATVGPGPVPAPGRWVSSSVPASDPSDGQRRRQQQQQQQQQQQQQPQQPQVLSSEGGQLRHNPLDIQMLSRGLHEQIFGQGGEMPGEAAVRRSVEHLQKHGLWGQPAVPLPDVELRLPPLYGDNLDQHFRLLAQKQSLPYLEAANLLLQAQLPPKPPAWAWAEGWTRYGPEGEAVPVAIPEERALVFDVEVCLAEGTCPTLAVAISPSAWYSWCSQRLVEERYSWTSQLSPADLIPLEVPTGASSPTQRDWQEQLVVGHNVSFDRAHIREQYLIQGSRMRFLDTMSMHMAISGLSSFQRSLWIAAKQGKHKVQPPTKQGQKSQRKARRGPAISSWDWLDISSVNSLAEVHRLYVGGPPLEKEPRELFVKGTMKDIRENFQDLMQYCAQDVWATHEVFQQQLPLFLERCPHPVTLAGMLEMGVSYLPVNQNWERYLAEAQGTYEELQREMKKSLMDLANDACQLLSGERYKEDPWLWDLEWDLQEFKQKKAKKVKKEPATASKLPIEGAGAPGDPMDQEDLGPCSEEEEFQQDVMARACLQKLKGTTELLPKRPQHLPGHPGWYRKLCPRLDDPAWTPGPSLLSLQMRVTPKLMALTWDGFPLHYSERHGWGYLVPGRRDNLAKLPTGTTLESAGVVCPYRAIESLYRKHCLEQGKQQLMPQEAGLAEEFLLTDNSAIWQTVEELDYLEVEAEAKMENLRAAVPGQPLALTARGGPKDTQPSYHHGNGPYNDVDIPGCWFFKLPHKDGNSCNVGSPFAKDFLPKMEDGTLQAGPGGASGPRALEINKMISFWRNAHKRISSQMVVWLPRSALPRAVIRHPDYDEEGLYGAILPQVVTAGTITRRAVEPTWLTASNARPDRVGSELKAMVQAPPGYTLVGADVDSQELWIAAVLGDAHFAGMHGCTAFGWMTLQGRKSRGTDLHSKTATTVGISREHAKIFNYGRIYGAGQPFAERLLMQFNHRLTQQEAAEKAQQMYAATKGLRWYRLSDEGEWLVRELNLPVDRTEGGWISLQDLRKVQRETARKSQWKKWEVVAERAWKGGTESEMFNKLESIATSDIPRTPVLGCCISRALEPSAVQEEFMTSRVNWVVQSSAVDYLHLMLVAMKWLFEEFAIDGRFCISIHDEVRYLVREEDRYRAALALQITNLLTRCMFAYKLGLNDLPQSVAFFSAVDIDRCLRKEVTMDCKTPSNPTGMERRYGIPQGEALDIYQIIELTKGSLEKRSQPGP
T5 sequence (Q9UHN1 26-485 partner limits assumed): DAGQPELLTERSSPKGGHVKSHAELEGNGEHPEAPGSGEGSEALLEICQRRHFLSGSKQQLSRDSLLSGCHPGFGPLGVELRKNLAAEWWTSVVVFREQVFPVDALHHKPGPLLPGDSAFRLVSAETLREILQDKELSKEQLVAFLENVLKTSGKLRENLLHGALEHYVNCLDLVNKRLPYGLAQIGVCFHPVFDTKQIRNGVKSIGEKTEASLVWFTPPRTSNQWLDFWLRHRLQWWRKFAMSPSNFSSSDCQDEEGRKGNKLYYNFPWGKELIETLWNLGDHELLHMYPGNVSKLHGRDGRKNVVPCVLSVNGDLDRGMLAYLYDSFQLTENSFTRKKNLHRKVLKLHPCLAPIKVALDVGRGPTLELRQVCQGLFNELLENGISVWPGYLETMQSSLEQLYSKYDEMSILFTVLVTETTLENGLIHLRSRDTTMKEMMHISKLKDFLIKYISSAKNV
Source text: as §1, §2

[6] = Bone marrow erythroid progenitor colony assay, 14 days; type: cell-based, human; details: human, human bone marrow erythroid progenitors, read-out: Mean CC50 ± SD in Bone marrow cells Erythroid
[7] = Bone marrow myeloid progenitor colony assay, 14 days; type: cell-based, human; details: human, human bone marrow myeloid progenitors, read-out: Mean CC50 ± SD in Bone marrow cells Myeloid
[8] = tested on: mitochondrial DNA-encoded cytochrome c oxidase (COX-1); test: Mitochondrial protein synthesis assay (COX-1, MitoBiogenesis in-cell ELISA) in PC-3 cells; type: cell-based, human; details: PC-3 cells
Procedure: (§3) PC-3 cells were treated with the compounds for 5 days and analyzed with the MitoTox MitoBiogenesis in-cell enzyme-linked immunosorbent assay (ELISA) kit (MitoSciences/Abcam, Eugene, Oregon) as described previously ([13]). The assay uses quantitative immunocytochemistry to measure the protein levels of nuclear DNA-encoded succinate dehydrogenase (SDH-A; complex II [succinate dehydrogenase]) and mitochondrial DNA-encoded cytochrome c oxidase (COX-1; complex IV [cytochrome c oxidase]) in cultured cells.

[9] = tested on: mitochondrial DNA-encoded cytochrome c oxidase (COX-1; complex IV) protein level; test: as above; type: cell-based, human; details: human; PC-3 cells, COX-1, 5 days; read-out: Mean CC50 ± SD causing Mitochondrial toxicity: Protein synthesis
Procedure: as §3

[10] = tested on: nuclear DNA-encoded succinate dehydrogenase (SDH-A; complex II) protein level; test: Nuclear protein synthesis (SDH-A, MitoBiogenesis in-cell ELISA) in PC-3 cells; type: cell-based, human; details: human, read-out: Mean CC50 ± SD causing General cellular toxicity: Protein synthesis
Procedure: as §3

[11] = Cytotoxicity in quiescent PBMCs, 5 days; details: human, quiescent PBMCs
Procedure: Human peripheral blood mononuclear cells (PBMCs) were isolated from human buffy coats obtained from healthy volunteers (Stanford Blood Bank, Palo Alto, CA) using standard Ficoll separation and stimulated as described elsewhere ([13]) and were tested at both quiescent and stimulated stages. Quiescent PBMCs were stimulated with 10 units per ml of recombinant human interleukin 2 (hIL-2) and 1 μg per ml phytohemagglutinin P (PHA-P) for 48 h prior to drug treatment.
(§4) All cells were cultured at 37°C in a 5% CO2 incubator with 90% humidity unless noted otherwise. […] All cells were treated with the various compounds for 5 days, except for human erythroid and myeloid progenitors, which were treated for 14 days. After the incubation period, cell viability was measured by the addition of CellTiter Glo viability reagents (Promega, Madison, WI). The luminescence signal was quantified on an Envision luminescence plate reader (PerkinElmer, Waltham, MA) after incubation of the reagents and cells for 10 min at room temperature. […] CC50 values were calculated as the average of the results of three or four independent experiments.
Human peripheral blood mononuclear cells (PBMCs) were isolated from human buffy coats
obtained from normal healthy volunteers (Stanford Medical School Blood Center, Palo Alto,
CA). Total PBMCs were isolated from buffy coats using standard Ficoll separation and sterile
cellular isolation techniques performed in a bio-safety cabinet (1). Except where noted, the
procedure was carried out at room temperature. The final PBMCs pellet was resuspended in
Logan, UT), penicillin 100 units/mL and streptomycin 100 µg/mL (Gibco). For quiescent
PBMCs cultures, total cells were seeded in 96-well plates at a density of 1 x 10^6 cells per well, followed by immediate drug treatment. Stimulated PBMCs cultures were set up by seeding the freshly isolated PBMCs in T-175cm2 tissue culture flasks in 100 mL of RPMI containing the same components as the ones used for the quiescent PBMCs but with the addition of 10 units per mL of recombinant human interleukin-2 (hIL-2, Roche, Indianapolis, IN), and 1 µg per mL phytohemagglutinin-P (PHA-P, Sigma-Aldrich, St. Louis, MO) at density of 2  10^6 cells per mL for 48 hours at 37C in a 5% CO2 incubator with 90% humidity, prior to drug treatment.

[12] = Cytotoxicity in stimulated PBMCs, 5 days; details: human, stimulated PBMCs
[13] = Cytotoxicity in MT-4 T-cells, 5-day treatment; details: human, MT-4 cells
[14] = Cytotoxicity in MRC5 fibroblasts, 5-day treatment; details: human, MRC5 fibroblasts
[15] = Cytotoxicity in primary human hepatocytes, 5 days; details: human, primary human hepatocytes
[16] = Cytotoxicity / ATP level in PC-3 cells, 5-day treatment; details: human, PC-3 cells
Procedure: as §4
Cell Culture and Cytotoxicity Studies
The Huh-7 cells were maintained in growth medium containing Dulbecco's Modified Eagle
Medium (DMEM, Cellgro) supplemented with 1% Nonessential Amino Acids (NEAA, Cellgro,
Manassas, VA), 10% fetal bovine serum (FBS, HyClone, Logan, UT) and 1% Penicillin-
streptomycin-glutamate (PSG, Invitrogen, Carlsbad, CA). The cells were passaged twice weekly
and maintained at 90% confluence densities.
The HepG2 cells were maintained in Eagle’s Minimum Essential Medium (EMEM) from ATCC
(Manassas, VA) supplemented with 10% FBS, 100 units/mL penicillin and 100 µg/mL
streptomycin (P/S) (Gibco). The cells were passaged twice weekly and maintained at 90%
The PC-3 cells were maintained in Kaighn’s F12 medium (Gibco, Carlsbad, CA) supplemented
with 10% FBS (HyClone, Logan, UT), 100 units/mL penicillin and 100 µg/mL streptomycin
(P/S) (Gibco). The cells were passaged twice weekly and maintained at 90% confluence. Cells
between passages 4 and 15 were used in the assays.
The fibroblast cell line MRC-5 cell line derived from normal lung tissue, was purchased from
ATCC (Manassas, VA) and cultured in Minimum Essential Medium (MEM) (Cellgro, Manassas,
VA) supplemented with 10% FBS (HyClone, Logan, UT) and 1% PSG (Invitrogen). The cells
were passaged twice weekly and maintained at 90% confluence densities.

[17] = Cytotoxicity in HepG2 (galactose) cells, 5-day treatment; details: human, HepG2 cells (galactose)
[18] = Cytotoxicity in Huh7 cells, 5-day treatment (CellTiter Glo); details: human, Huh-7 cells
[19] = tested on: mitochondrial spare respiratory capacity in PC-3 cells; test: Oxygen consumption rate / spare respiratory capacity in PC-3 cells; details: PC-3 cells, 3-day treatments
[20] = tested on: mitochondrial spare respiratory capacity; test: as above; details: human, pH 7.4
[21] = molecular target: T6, recombinant human PolRMT (Homo sapiens, UniProt O00411); test: Single-nucleotide incorporation by PolRMT; type: biochemical; details: triphosphate form, fixed saturating concentration 500 μM, rate relative to corresponding natural rNTP
T6 construct: purchased Enzymax (Lexington, KY)
Source text: as §1, §2
Supplementary Table S1: RNA primer and templates used in mitochondrial RNA
polymerase single nucleotide incorporation assay.
Oligonucleotides Sequencesa
Primer (R12) 5’-[…]-3’
Templates (D18) 3’-[…]-5’
a The bold letter in the template sequences denotes the bases that pair with the incoming NTP. […]

T2 sequence (O54889 whole entry): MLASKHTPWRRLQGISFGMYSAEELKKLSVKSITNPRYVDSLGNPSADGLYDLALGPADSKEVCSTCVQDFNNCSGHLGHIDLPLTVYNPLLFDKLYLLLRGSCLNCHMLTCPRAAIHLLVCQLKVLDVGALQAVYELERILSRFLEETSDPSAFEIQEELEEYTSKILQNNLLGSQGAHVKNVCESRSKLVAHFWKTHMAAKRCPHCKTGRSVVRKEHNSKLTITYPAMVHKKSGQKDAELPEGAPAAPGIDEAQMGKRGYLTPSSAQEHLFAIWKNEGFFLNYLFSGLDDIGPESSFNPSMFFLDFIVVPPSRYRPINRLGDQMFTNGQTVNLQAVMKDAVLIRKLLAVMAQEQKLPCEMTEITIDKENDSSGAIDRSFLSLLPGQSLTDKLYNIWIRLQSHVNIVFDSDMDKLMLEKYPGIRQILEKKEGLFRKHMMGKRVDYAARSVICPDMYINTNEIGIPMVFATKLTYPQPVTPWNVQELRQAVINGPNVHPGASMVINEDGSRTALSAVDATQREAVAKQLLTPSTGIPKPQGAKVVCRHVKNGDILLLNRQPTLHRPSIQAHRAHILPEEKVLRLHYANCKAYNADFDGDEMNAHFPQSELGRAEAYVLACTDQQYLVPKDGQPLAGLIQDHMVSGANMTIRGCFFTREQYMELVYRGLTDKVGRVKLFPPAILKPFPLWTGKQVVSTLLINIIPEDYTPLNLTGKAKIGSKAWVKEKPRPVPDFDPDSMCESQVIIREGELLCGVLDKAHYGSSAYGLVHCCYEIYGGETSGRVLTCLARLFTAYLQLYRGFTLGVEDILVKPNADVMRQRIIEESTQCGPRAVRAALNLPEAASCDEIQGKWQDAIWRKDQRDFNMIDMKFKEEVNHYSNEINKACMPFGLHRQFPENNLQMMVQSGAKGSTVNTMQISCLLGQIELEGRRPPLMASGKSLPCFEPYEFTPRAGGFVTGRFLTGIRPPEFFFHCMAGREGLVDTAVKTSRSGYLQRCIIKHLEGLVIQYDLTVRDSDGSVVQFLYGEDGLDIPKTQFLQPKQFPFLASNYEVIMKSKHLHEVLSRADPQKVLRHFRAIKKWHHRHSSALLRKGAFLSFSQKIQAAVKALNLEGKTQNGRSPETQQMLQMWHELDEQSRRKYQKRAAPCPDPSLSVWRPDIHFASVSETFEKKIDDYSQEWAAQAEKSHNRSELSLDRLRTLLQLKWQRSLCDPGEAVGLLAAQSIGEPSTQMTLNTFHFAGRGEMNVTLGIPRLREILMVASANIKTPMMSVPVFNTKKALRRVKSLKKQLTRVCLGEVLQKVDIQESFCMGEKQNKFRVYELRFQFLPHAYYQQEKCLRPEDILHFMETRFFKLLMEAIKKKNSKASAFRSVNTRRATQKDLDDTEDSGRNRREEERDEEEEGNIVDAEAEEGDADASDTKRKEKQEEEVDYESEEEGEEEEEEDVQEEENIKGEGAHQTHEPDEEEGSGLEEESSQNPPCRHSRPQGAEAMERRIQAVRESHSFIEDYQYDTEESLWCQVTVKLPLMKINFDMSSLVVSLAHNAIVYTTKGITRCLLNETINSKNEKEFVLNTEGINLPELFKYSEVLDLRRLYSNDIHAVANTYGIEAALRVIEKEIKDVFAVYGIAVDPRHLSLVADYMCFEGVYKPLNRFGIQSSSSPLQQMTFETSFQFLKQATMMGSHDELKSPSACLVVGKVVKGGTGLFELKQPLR
T6 sequence (O00411 42-1230): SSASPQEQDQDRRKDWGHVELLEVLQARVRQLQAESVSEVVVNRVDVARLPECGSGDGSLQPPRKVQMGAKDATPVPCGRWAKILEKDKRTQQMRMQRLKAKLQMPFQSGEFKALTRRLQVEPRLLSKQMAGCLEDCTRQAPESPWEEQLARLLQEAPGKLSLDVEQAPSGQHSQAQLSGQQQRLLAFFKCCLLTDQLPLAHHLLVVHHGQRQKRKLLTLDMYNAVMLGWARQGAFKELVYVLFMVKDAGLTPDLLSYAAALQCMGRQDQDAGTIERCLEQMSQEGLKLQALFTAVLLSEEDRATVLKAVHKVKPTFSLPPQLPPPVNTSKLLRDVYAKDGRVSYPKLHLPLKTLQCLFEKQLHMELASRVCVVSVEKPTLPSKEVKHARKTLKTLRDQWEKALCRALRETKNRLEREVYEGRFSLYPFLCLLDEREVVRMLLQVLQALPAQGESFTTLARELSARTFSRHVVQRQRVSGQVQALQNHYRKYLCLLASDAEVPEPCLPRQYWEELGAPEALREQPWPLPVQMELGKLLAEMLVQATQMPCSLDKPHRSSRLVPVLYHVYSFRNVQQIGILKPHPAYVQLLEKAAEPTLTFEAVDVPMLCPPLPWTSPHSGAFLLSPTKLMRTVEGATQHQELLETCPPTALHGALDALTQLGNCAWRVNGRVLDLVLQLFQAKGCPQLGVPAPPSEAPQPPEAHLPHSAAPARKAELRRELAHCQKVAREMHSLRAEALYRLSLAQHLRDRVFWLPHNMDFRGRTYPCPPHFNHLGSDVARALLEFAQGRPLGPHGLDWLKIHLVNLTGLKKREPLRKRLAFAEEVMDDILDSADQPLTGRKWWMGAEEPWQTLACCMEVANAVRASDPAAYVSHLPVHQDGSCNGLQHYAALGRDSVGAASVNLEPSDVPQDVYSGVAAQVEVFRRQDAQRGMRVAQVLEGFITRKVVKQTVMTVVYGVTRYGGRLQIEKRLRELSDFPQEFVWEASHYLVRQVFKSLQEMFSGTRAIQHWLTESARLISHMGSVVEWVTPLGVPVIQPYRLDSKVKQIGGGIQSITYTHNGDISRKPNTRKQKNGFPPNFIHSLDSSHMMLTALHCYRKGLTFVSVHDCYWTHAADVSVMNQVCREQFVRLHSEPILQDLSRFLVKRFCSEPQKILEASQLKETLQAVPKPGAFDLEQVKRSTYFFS

IC50 [1]: > 500 µM | IC50 [2]: 190 ± 40 µM | IC50 [3]: > 500 µM
Compound: C[C@@]1(O)[C@H](O)[C@@H](COP(=O)(O)OP(=O)(O)OP(=O)(O)O)O[C@H]1n1cnc2c(N)ncnc21 [2′CMeATP]

IC50 [1]: > 500 µM | IC50 [2]: 260 ± 40 µM | IC50 [3]: > 500 µM
Compound: C[C@@]1(O)[C@H](O)[C@@H](COP(=O)(O)OP(=O)(O)OP(=O)(O)O)O[C@H]1n1ccc(N)nc1=O [2′CMeCTP]

IC50 [4]: 1.9 ± 0.8 µM | IC50 [5]: 1.2 ± 0.6 µM
Compound: Cc1cn([C@H]2CC[C@@H](COP(=O)(O)OP(=O)(O)OP(=O)(O)O)O2)c(=O)[nH]c1=O [3′dTTP]

Compound: O=C(N[C@H](CO)[C@H](O)c1ccc([N+](=O)[O-])cc1)C(Cl)Cl [Chloramphenicol]
CC50 at 14 days [6]: 82 ± 29 µM | CC50 at 14 days [7]: > 100 µM | selectivity of effect on COX-1 versus SDH-A and ATP levels ([8]; 5-day treatments): specifically inhibited COX-1 synthesis | CC50 at 5 days [9]: 2.6 ± 0.6 µM | CC50 at 5 days [10]: > 50 µM | CC50 at 5 days [11]: > 100 µM | CC50 at 5 days [12]: > 100 µM | CC50 at 5 days [13]: > 89 µM | CC50 at 5 days [14]: > 89 µM | CC50 at 5 days [15]: > 100 µM | CC50 at 5 days [16]: 16 ± 3 µM | CC50 at 5 days [17]: > 89 µM | CC50 at 5 days [18]: > 89 µM | selectivity of effect on spare respiratory capacity versus DNA and ATP levels [19]: specifically inhibited mitochondrial spare respiratory capacity | CC50 at 3 days [20]: 4.5 ± 1.5 µM

effect on mitochondrial or nuclear protein synthesis or ATP level ([8]; 5-day treatment, 10 μM): no appreciable effect
Compound: NC(=O)c1ncn([C@@H]2O[C@H](CO)[C@@H](O)[C@H]2O)n1 [RBV, ribavirin]

Substrate incorporation (% of NTP [mean ± SD]) of PolRMT [21]: < 1 % of NTP
Compound: CC(C)C(=O)OC[C@H]1O[C@@H](n2ccc(N)nc2=O)[C@](C)(F)[C@@H]1OC(=O)C(C)C [mericitabine]
